Measured values published in patent US20240117005A1, “NOVEL BICYCLIC PEPTIDES” (THE COUNCIL OF THE QUEENSLAND INSTITUTE OF MEDICAL RESEARCH, priority 2021, published 2024).

Columns and labels:
[1] = tested on: CSV, ABCB5, EGFR, FOXQ1, E-Cadherin in MDA-MB-231-Br cells; test: High resolution digital pathology of mesenchymal/epithelial markers, MDA-MB-231-Br; format: cell-based, human
Experimental: To examine the signature of CD8, CSV, EGFR, ABCB5, FOXQ1, commercial PD-L1-28-8, nuclear PD-L1, cytoplasmic PDL1 in MDA-MB-231 TNBC cells/TNBC brain cancer clone cells (untreated or treated with bicyclic inhibitors targeting nuclear PD-L1-PTM1). MDA-MB-231/MDA-MB-231-Br cells were permeabilised by incubating with 0.5% Triton X-100 for 15 min, blocked with 1% BSA in PBS and were probed with either CSV (Mouse host), CD8 (mouse host), EGFR (Rabbit host), ABCB5 (Goat Host), ALDH1A (Rabbit Host), NODAL (Goat Host), nuclear PDL1 (rabbit host), cytoplasmic PD-L1 (rabbit host) visualized with a donkey anti-rabbit AF 488, anti-mouse AF 568, donkey anti-goat 647. […] Digital images were analyzed using automated ASI software (Applied Spectral Imaging, Carlsbad, CA) to determine the distribution and intensities automatically with automatic thresholding and background correction of the average nuclear fluorescence intensity (NFI), allowing for the specific targeting of expression of proteins of interest. Digital images were also analysed using ImageJ software (ImageJ, NIH, Bethesda, MD, USA) to determine the total cell fluorescence or cell surface only fluorescence for non-permeabilised cells. Digital images were analysed using ImageJ software (ImageJ, NIH, Bethesda, MD, USA) to determine either the Total Nuclear Fluorescent Intensity (TNFI), the Total Cytoplasmic Fluorescent Intensity (TCFI). […]

PDL1-PTM1 and IMPα1 = target: T1, PDL1-PTM1 and IMPα1 (Homo sapiens, UniProt P52292); test: Importin-α pathway screening assay (PCC co-localisation); format: cell-based
T1 construct: endogenous in cells; host or cells: MDA-MB-231
Experimental: MDA-MB-231 cells were treated with DL-2 for 4 to 96 hours or control peptide scramble and were permeabilized probed a mouse anti-IMPα1, rabbit anti-PDL1 and visualized with a donkey anti-rabbit secondary antibody conjugated to Alexa Fluor 647 or a donkey anti-mouse secondary antibody conjugated to Alexa Fluor 568. Cover slips were mounted on glass microscope slides with Prolong nucleus glass Antifade reagent (Life Technologies). PDL1 and IMPα1 digital images were analyzed using ImageJ software (ImageJ, NIH, Bethesda, MD, USA) to determine the mean fluorescent intensity (mean FI). Graphs represent the mean FI of IMPα1. Graphs also depict the PCC of PDL1/IMPα1 using ImageJ software with automatic thresholding and manual selection of regions of interest (ROIs) specific for cell nuclei to calculate the Pearson's co-efficient correlation (PCC) for each pair of antibodies. PCC values range from: −1=inverse of co-localization.

[2] = tested on: 4T1 TNBC metastatic cancer cells; test: 4T1 model of metastatic breast cancer in mice; format: in vivo, mouse
Experimental: 4T1 Gold standard immunotherapy resistant mouse model mice obtained from the ARC, Perth and mice were inoculated with 4T1 TNBC metastatic cancer cells. DL-2 is supplied lyophilised in glass vials and was reconstituted using sodium chloride injection BP (0.9% saline) to make a stock solution of 10 mg/mL using a needle/syringe, DL-2 was mixed by inversion. Animals were then injected by intraperitoneal injection at 10, 20 or 30 mg/kg daily and rested over the weekend. Mice were monitored over time for body weight and tumour volume.
4T1 Gold standard immunotherapy resistant mouse model mice obtained from the ARC, Perth and mice were inoculated with 4T1 TNBC metastatic cancer cells. DL-2 or DL-2-D is supplied lyophilised in glass vials was reconstituted using sodium chloride injection BP (0.9% saline) to make a stock solution of 10 mg/mL using a needle/syringe, DL-2 was mixed by inversion. Animals were then injected by intraperitoneal injection and mice were monitored over time for body weight and tumour volume for DL-2 at 20 mg/kg every second day with resting over the weekend in conjunction with αPD1 or isotype control (10 mg/kg).
DL-2-D was mixed by inversion. Animals were then injected by intraperitoneal injection and mice were monitored over time for body weight and tumour volume for DL-2-D at a concentration of 20 mg/kg every two days (identical regime to αPD1) in conjunction with αPD1 or isotype control (10 mg/kg).

In the case of `CCCCCCCCCCCCCC(=O)NC(C)C(=O)NC1CSCc2cc3cc(c2)CSC[C@H](NC(=O)[C@H](Cc2ccccc2)NC(=O)[C@H](C(C)CC)NC(=O)[C@H](Cc2ccccc2)NC(=O)[C@H]([C@@H](C)O)NC(=O)C(CC(C)C)NC1=O)C(=O)N[C@@H](CCCNC(C)=N)C(=O)N[C@@H](CC(C)C)C(=O)N[C@@H](CCCNC(=N)N)C(=O)N[C@@H](CCCCN)C(=O)NCC(=O)N[C@@H](CCCNC(=N)N)C(=O)NC(C(=O)N[C@@H](CCSC)C(=O)NC(CCSC)C(=O)N[C@@H](CC(=O)O)C(=O)NC(C(=O)N[C@@H](CCCCN)C(=O)NC(CCCCN)C(=O)O)C(C)C)CSC3` (mixture of isomers) [DL-2], the “expression of the epithelial marker E-Cadherin” value [1] is reported as “able to induce expression”, the “mesenchymal stem-like resistant protein markers (CSV, ABCB5, EGFR, FOXQ1)” value ([1]; vs vehicle control) is reported as “significantly inhibit” and the “nuclear expression of IMPα1” value (PDL1-PTM1 and IMPα1; MDA-MB-231) is reported as “No significant effect”. The “PCC or degree of co-localization of PDL1-PTM1 and IMPα1” value (PDL1-PTM1 and IMPα1; MDA-MB-231, up to 96 hours) was “significantly impair”, the body weight ([2]; DL-2 and anti-PD1 combination therapy) was “No change” and the primary tumour volume ([2]; DL-2 in combination with an anti-PD1 antibody, 10 day treatment period) was “significantly reduces”. The “lung, liver or spleen weights” value ([2]; DL-2 in combination with anti-PD1) was “does not alter”, the body weight ([2]; DL-2 monotherapy) was “No change” and the “lung, liver or spleen weights” value ([2]; DL-2 monotherapy) was “does not alter”. For the same compound, the primary tumour volume ([2]; DL-2 monotherapy 20 and 30 mg/kg i.p., eight day treatment period) was “reduces” and the tumour weight ([2]; DL-2 monotherapy 20 and 30 mg/kg, after 8 days) was “significantly reduced”.
